Test system: Bacteria mixture 2 (alkaliphilic bacteria of the Nesterenkonia & Alkalibacterium genus)
Experiment: Repetitive stress test of paints with bacteria mixture 2, semiquantitative evaluation (examples 4 and 5)
Type: cell-based
Set-up: key to Bacterial growth after inoculation: 0: No growth; Minimal growth, 1 to 10 colonies visible over the entire streak; 2: Light growth, maximum 100 colonies; Moderate growth, maximum 300 to 400 colonies; Uniform growth, >400 colonies, single colonies still clearly recognizable; 5: Heavy growth, too many colonies to count, but no growth over the entire streak; 6: Full growth, barely any single colonies still apparent, growth over the entire streak
Text: Paints 1 to 3 were mixed and homogenized with various concentrations of the guanidinium salts to be tested.
The batches obtained of the paint thus prepared were inoculated repeatedly with a mixture of different wild-type bacterial strains that are of practical relevance with regard to contamination. These bacteria had previously been isolated from commercial emulsion paints containing conventional preservatives (bacteria mixture 1, Pseudomonas genus), which are microbially contaminated in practice, and commercial so-called preservative-free alkaline emulsion paints (bacteria mixture 2, alkaliphilic bacteria of the Nesterenkonia & Alkalibacterium genus), which are microbially contaminated in practice.
• Nesterenkonia sp. DSM 108520 • Nesterenkonia sp. DSM 108521 • Alkalibacterium pelagium DSM 108522 • Nesterenkonia massiliensis DSM 110679 • Nesterenkonia sp. DSM 108519
The inoculum was added to the respective sample in each inoculation at 2% (v/w) as a fresh cell suspension in a physiological saline solution (0.9% NaCl). The cell count of the added inoculum in example 1 was 10^5/ml, in examples 2 to 5 10^9/ml, and in example 6 10^6/ml, each in equal portions consisting of the individual bacterial strains. The cell suspension was produced by growing the individual bacteria at 30° C. for 24 h in liquid culture on a shaker. The medium used to grow the bacteria from bacteria mixture 1 was Müller-Hinton liquid medium. Bacteria from bacteria mixture 2 were grown in Müller-Hinton liquid medium that had been adjusted to pH 9.5-9.7 with an alkaline buffer solution beforehand. After growing, the individual liquid cultures were centrifuged, and the cells were resuspended in physiological saline solution. In order to adjust the mixture to the desired cell count, the individual bacteria suspensions, if necessary, were diluted accordingly before being combined with saline solution. The cell count of the inoculum was determined in each case by chamber counting.
In examples 2 to 6, what is called a repetitive stress test with bacteria was conducted by inoculating the samples at particular time intervals repeatedly with a bacteria suspension having a cell count of 10^9/ml (2% v/w) and monitoring the evolution of the bacteria by a semiquantitative evaluation method. After each inoculation, the samples were incubated at 30° C. for 6 days (bacteria mixture 1 and 3) or 7 and 14 days (bacteria mixture 2), and after these periods bacterial infestation was evaluated semiquantitatively in each case. For this purpose, an aliquot was taken from each sample after homogenization using a sterile plastic inoculation loop (10 μl) and streaked evenly on agar plates (bacteria mixture 1 and 3 on tryptic soy agar, bacteria mixture 2 on DSMZ 31 alkaline nutrient agar). The streaked agar plates were then incubated at 30° C. for 48 h (bacteria mixture 1 and 3) or 5 to 7 days (bacteria mixture 2). After incubation, the bacterial colonies grown on the agar plates were visually evaluated and quantified according to the following scheme:
A total of 3 inoculation cycles was performed in each repetitive stress test.
Inoculation 2% (w/v) with Bacteria Mixture 2, 10^9 CFU/ml

N=C(N)N.N=C(N)N.O=C(O)O [guanidine carbonate]
Bacterial growth after inoculation (Table 4, Paint 2, +0.1% guanidine carbonate (656 ppm guanidine), pH 8.9, 2. inoculation, 14 d): 4 (Uniform growth, >400 colonies, single colonies still clearly recognizable)
Bacterial growth after inoculation (Table 4, Paint 2, +0.1% guanidine carbonate (656 ppm guanidine), pH 8.9, 3. inoculation, 7 d): 6/6
Bacterial growth after inoculation (Table 4, Paint 2, +0.1% guanidine carbonate (656 ppm guanidine), pH 8.9, 3. inoculation, 14 d): 6/6
Bacterial growth after inoculation (Table 4, Paint 2, +0.15% guanidine carbonate (984 ppm guanidine), pH 9.0, 1. inoculation, 7 d): 0/0
Bacterial growth after inoculation (Table 4, Paint 2, +0.15% guanidine carbonate (984 ppm guanidine), pH 9.0, 1. inoculation, 14 d): 0/0
Bacterial growth after inoculation (Table 4, Paint 2, +0.15% guanidine carbonate (984 ppm guanidine), pH 9.0, 2. inoculation, 7 d): 2 (Light growth, maximum 100 colonies)
Bacterial growth after inoculation (Table 4, Paint 2, +0.15% guanidine carbonate (984 ppm guanidine), pH 9.0, 2. inoculation, 14 d): 1 (Minimal growth, 1 to 10 colonies visible over the entire streak)
Bacterial growth after inoculation (Table 4, Paint 2, +0.15% guanidine carbonate (984 ppm guanidine), pH 9.0, 3. inoculation, 7 d): 6/6
Bacterial growth after inoculation (Table 4, Paint 2, +0.15% guanidine carbonate (984 ppm guanidine), pH 9.0, 3. inoculation, 14 d): 6/6
Bacterial growth after inoculation (Table 4, Paint 2, +0.2% guanidine carbonate (1312 ppm guanidine), pH 9.1, 1. inoculation, 7 d): 0/0
Bacterial growth after inoculation (Table 4, Paint 2, +0.2% guanidine carbonate (1312 ppm guanidine), pH 9.1, 1. inoculation, 14 d): 0/0
Bacterial growth after inoculation (Table 4, Paint 2, +0.2% guanidine carbonate (1312 ppm guanidine), pH 9.1, 2. inoculation, 7 d): 0/0
Bacterial growth after inoculation (Table 4, Paint 2, +0.2% guanidine carbonate (1312 ppm guanidine), pH 9.1, 2. inoculation, 14 d): 0/0
Bacterial growth after inoculation (Table 4, Paint 2, +0.2% guanidine carbonate (1312 ppm guanidine), pH 9.1, 3. inoculation, 7 d): 6/6
Bacterial growth after inoculation (Table 4, Paint 2, +0.2% guanidine carbonate (1312 ppm guanidine), pH 9.1, 3. inoculation, 14 d): 6/6
Bacterial growth after inoculation (Table 4, Paint 2, +0.25% guanidine carbonate (1640 ppm guanidine), pH 9.1, 1. inoculation, 7 d): 0/0
Bacterial growth after inoculation (Table 4, Paint 2, +0.25% guanidine carbonate (1640 ppm guanidine), pH 9.1, 1. inoculation, 14 d): 0/0
Bacterial growth after inoculation (Table 4, Paint 2, +0.25% guanidine carbonate (1640 ppm guanidine), pH 9.1, 2. inoculation, 7 d): 0/0
Bacterial growth after inoculation (Table 4, Paint 2, +0.25% guanidine carbonate (1640 ppm guanidine), pH 9.1, 2. inoculation, 14 d): 0/0
Bacterial growth after inoculation (Table 4, Paint 2, +0.25% guanidine carbonate (1640 ppm guanidine), pH 9.1, 3. inoculation, 7 d): 0/0
Bacterial growth after inoculation (Table 4, Paint 2, +0.25% guanidine carbonate (1640 ppm guanidine), pH 9.1, 3. inoculation, 14 d): 0/0
Bacterial growth after inoculation (Table 4, Paint 2, +0.3% guanidine carbonate (1968 ppm guanidine), pH 9.2, 1. inoculation, 7 d): 0/0
Bacterial growth after inoculation (Table 4, Paint 2, +0.3% guanidine carbonate (1968 ppm guanidine), pH 9.2, 1. inoculation, 14 d): 0/0
Bacterial growth after inoculation (Table 4, Paint 2, +0.3% guanidine carbonate (1968 ppm guanidine), pH 9.2, 2. inoculation, 7 d): 0/0
Bacterial growth after inoculation (Table 4, Paint 2, +0.3% guanidine carbonate (1968 ppm guanidine), pH 9.2, 2. inoculation, 14 d): 0/0
Bacterial growth after inoculation (Table 4, Paint 2, +0.3% guanidine carbonate (1968 ppm guanidine), pH 9.2, 3. inoculation, 7 d): 0/0
Bacterial growth after inoculation (Table 4, Paint 2, +0.3% guanidine carbonate (1968 ppm guanidine), pH 9.2, 3. inoculation, 14 d): 0/0
Bacterial growth after inoculation (Table 4, Paint 2, +0.4% guanidine carbonate (2624 ppm guanidine), pH 9.3, 1. inoculation, 7 d): 0/0
Bacterial growth after inoculation (Table 4, Paint 2, +0.4% guanidine carbonate (2624 ppm guanidine), pH 9.3, 1. inoculation, 14 d): 0/0
Bacterial growth after inoculation (Table 4, Paint 2, +0.4% guanidine carbonate (2624 ppm guanidine), pH 9.3, 2. inoculation, 7 d): 0/0
Bacterial growth after inoculation (Table 4, Paint 2, +0.4% guanidine carbonate (2624 ppm guanidine), pH 9.3, 2. inoculation, 14 d): 0/0
Bacterial growth after inoculation (Table 4, Paint 2, +0.4% guanidine carbonate (2624 ppm guanidine), pH 9.3, 3. inoculation, 7 d): 0/0
Bacterial growth after inoculation (Table 4, Paint 2, +0.4% guanidine carbonate (2624 ppm guanidine), pH 9.3, 3. inoculation, 14 d): 0/0
Bacterial growth after inoculation (Table 4, Paint 2, +0.5% guanidine carbonate (3280 ppm guanidine), pH 9.4, 1. inoculation, 7 d): 0/0
Bacterial growth after inoculation (Table 4, Paint 2, +0.5% guanidine carbonate (3280 ppm guanidine), pH 9.4, 1. inoculation, 14 d): 0/0
Bacterial growth after inoculation (Table 4, Paint 2, +0.5% guanidine carbonate (3280 ppm guanidine), pH 9.4, 2. inoculation, 7 d): 0/0
Bacterial growth after inoculation (Table 4, Paint 2, +0.5% guanidine carbonate (3280 ppm guanidine), pH 9.4, 2. inoculation, 14 d): 0/0
Bacterial growth after inoculation (Table 4, Paint 2, +0.5% guanidine carbonate (3280 ppm guanidine), pH 9.4, 3. inoculation, 7 d): 0/0
Bacterial growth after inoculation (Table 4, Paint 2, +0.5% guanidine carbonate (3280 ppm guanidine), pH 9.4, 3. inoculation, 14 d): 0/0
Bacterial growth after inoculation (Table 4, Paint 2, +1.0% guanidine carbonate (6560 ppm guanidine), pH 9.8, 1. inoculation, 7 d): 0/0
Bacterial growth after inoculation (Table 4, Paint 2, +1.0% guanidine carbonate (6560 ppm guanidine), pH 9.8, 1. inoculation, 14 d): 0/0
Bacterial growth after inoculation (Table 4, Paint 2, +1.0% guanidine carbonate (6560 ppm guanidine), pH 9.8, 2. inoculation, 7 d): 0/0
Bacterial growth after inoculation (Table 4, Paint 2, +1.0% guanidine carbonate (6560 ppm guanidine), pH 9.8, 2. inoculation, 14 d): 0/0
Bacterial growth after inoculation (Table 4, Paint 2, +1.0% guanidine carbonate (6560 ppm guanidine), pH 9.8, 3. inoculation, 7 d): 0/0
Bacterial growth after inoculation (Table 4, Paint 2, +1.0% guanidine carbonate (6560 ppm guanidine), pH 9.8, 3. inoculation, 14 d): 0/0
Bacterial growth after inoculation (Table 5, Paint 3, +0.15% guanidine carbonate (984 ppm guanidine), pH 11.2, 1. inoculation, 7 d): 3 (Moderate growth, maximum 300 to 400 colonies)
Bacterial growth after inoculation (Table 5, Paint 3, +0.15% guanidine carbonate (984 ppm guanidine), pH 11.2, 1. inoculation, 14 d): 0
Bacterial growth after inoculation (Table 5, Paint 3, +0.15% guanidine carbonate (984 ppm guanidine), pH 11.2, 2. inoculation, 7 d): 3 (Moderate growth, maximum 300 to 400 colonies)
Bacterial growth after inoculation (Table 5, Paint 3, +0.15% guanidine carbonate (984 ppm guanidine), pH 11.2, 2. inoculation, 14 d): 0
Stabilization of the paint against microbial infestation (table 4, addition of 0.1% by weight to paint 1 having a pH of 9.1 or greater): distinct stabilization
Stabilization of the paint against microbial infestation (table 4, addition of 0.1% by weight to paint 2 having a pH of 8.9 or greater): distinct stabilization
Stabilization of the paint against microbial infestation (table 5, paint having a pH of pH 11.2, addition of 0.1% by weight): distinct stabilization

— US20260265538A1, “Aqueous Industrial Product Stabilized Against Microbial Contamination” (Thor GmbH, priority 2023, published 2026)
